{"source": "patent US9034400B2", "about": "“Process for preparation of a herbal extract” (Piramal Enterprises Limited, priority 2011, dated 2015)", "tested_on": "subject with uncontrolled type II diabetes / non insulin-dependent diabetes", "test": "Anecdotal studies: hypoglycemic effect, blood glucose level of diabetic subjects", "assay_type": "in vivo, human", "details": "before capsules"}
{"smiles": "CN(C)C(=N)N=C(N)N", "note": "[metformin]", "values": [{"measurement": "daily blood glucose level (base level) on metformin alone", "setting": "study 2: person, 61 kg, non insulin-dependent diabetes, metformin 500 mg BID", "result": 234, "unit": "mg/dL"}, {"measurement": "daily blood glucose level (base level) on metformin alone", "setting": "study 3: person, 67 kg, non insulin-dependent uncontrolled diabetic, metformin 500 mg, three tablets per day", "result": 261, "unit": "mg/dL"}]}
